Data as given in PMC6295194 (Science translational medicine, 2018).
Where a name gives a salt, the structure may show the parent alone.

Legend:
rhesus monkeys [1] = test system: rhesus monkeys; parameters: species or system rhesus monkeys (Macaca mulatta); settings: rhesus monkey, in vivo
rhesus monkeys [2] = assay: Physiological responses by radio-telemetry; assay type: in vivo, rhesus monkeys (Macaca mulatta); settings: 1 mg/kg i.m., single monkey
rhesus monkeys [3] = assay: Warm water tail-withdrawal assay; assay type: in vivo, rhesus monkeys (Macaca mulatta); settings: Macaca mulatta, sc, read-out: antinociception ED50
rhesus monkeys [4] = assay: Tolerance to antinociceptive effects after 4 weeks repeated administration; settings: 2 injections daily for 4 weeks: morphine 1.8 mg/kg, AT-121 0.03 mg/kg
human NOP receptor = human NOP receptor (Homo sapiens, UniProt P41146); assay type: biochemical; settings: percentage of stimulation of standard full agonist N/OFQ (100%)
Sequence of human NOP receptor (P41146 whole entry): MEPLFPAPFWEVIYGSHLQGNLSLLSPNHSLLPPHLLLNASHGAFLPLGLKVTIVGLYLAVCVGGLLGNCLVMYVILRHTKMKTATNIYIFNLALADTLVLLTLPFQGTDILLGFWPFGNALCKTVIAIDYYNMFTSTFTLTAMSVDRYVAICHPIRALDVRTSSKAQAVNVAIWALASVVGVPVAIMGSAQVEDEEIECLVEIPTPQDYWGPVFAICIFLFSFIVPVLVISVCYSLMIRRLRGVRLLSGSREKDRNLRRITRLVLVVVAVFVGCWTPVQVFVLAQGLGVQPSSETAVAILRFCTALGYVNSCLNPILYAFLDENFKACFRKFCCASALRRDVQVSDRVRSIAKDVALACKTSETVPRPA

buprenorphine HCl
effect of pretreatment on reinforcing effects of oxycodone (rhesus monkeys [1]): effectively attenuated the reinforcing effects of oxycodone

O=C1CC[C@@]2(O)[C@H]3Cc4ccc(O)c5c4[C@@]2(CCN3CC2CC2)[C@H]1O5 [naltrexone, naltrexone HCl]
effect of pretreatment on reinforcing effects of oxycodone (rhesus monkeys [1]): effectively attenuated the reinforcing effects of oxycodone

CC(=O)Oc1ccc2c3c1O[C@H]1[C@@H](OC(C)=O)C=C[C@H]4[C@@H](C2)N(C)CC[C@@]341 [heroin, diamorphine HCl]
respiratory depression (rhesus monkeys [2]): caused respiratory depression
time to respiratory depression (rhesus monkeys [2]): < 20 min

CN1CC[C@]23c4c5ccc(O)c4O[C@H]2[C@@H](O)C=C[C@H]3[C@H]1C5 [Morphine, Morphine sulfate]
ED50 (rhesus monkeys [3]): 1 mg/kg
tolerance to antinociceptive effects (rhesus monkeys [4]): decrease in antinociceptive effects
[35S]GTPγS NOP % Stim (human NOP receptor): 5.4 ± 1%
